From the NIST ThermoML archive (doi:10.1016/j.jct.2016.10.023)
Numbers after ± are expanded uncertainties.

Test: xn = mol fraction of the nth substance listed
Conditions: Constant-volume piezometry

CCCCC [pentane] + CCCO
Conditions	mass density [kg/m3]
553.15 K, 10864 kPa, Fluid (supercritical or subcritical phases), x1 = 0.9	311.86 ± 1.6
553.15 K, 11147 kPa, Fluid (supercritical or subcritical phases), x1 = 0.2	390.67 ± 2
553.15 K, 11334 kPa, Fluid (supercritical or subcritical phases), x1 = 0.8	314.89 ± 1.6
553.15 K, 12137 kPa, Fluid (supercritical or subcritical phases), x1 = 0.9	333.53 ± 1.7
553.15 K, 12374 kPa, Fluid (supercritical or subcritical phases), x1 = 0.8	333.35 ± 1.7
553.15 K, 13032 kPa, Fluid (supercritical or subcritical phases), x1 = 0.2	418.04 ± 2.1
553.15 K, 13118 kPa, Fluid (supercritical or subcritical phases), x1 = 0.8	344.85 ± 1.7
553.15 K, 13951 kPa, Fluid (supercritical or subcritical phases), x1 = 0.9	353.59 ± 1.8
553.15 K, 14669 kPa, Fluid (supercritical or subcritical phases), x1 = 0.8	361.39 ± 1.8
553.15 K, 18451 kPa, Fluid (supercritical or subcritical phases), x1 = 0.2	469.6 ± 2.4
553.15 K, 20863 kPa, Fluid (supercritical or subcritical phases), x1 = 0.9	406.66 ± 2
553.15 K, 21933 kPa, Fluid (supercritical or subcritical phases), x1 = 0.8	417.56 ± 2.1
553.15 K, 25921 kPa, Fluid (supercritical or subcritical phases), x1 = 0.2	508.72 ± 2.6
553.15 K, 34331 kPa, Fluid (supercritical or subcritical phases), x1 = 0.8	465.95 ± 2.4
553.15 K, 37494 kPa, Fluid (supercritical or subcritical phases), x1 = 0.2	546.06 ± 2.8
563.15 K, 1429 kPa, Gas, x1 = 0.8	22.48 ± 0.07
563.15 K, 1719 kPa, Gas, x1 = 0.2	24.88 ± 0.08
563.15 K, 2200 kPa, Gas, x1 = 0.8	36.62 ± 0.11
563.15 K, 3253 kPa, Gas, x1 = 0.8	58.3 ± 0.18
563.15 K, 3644 kPa, Gas, x1 = 0.2	52.9 ± 0.16
563.15 K, 3914 kPa, Fluid (supercritical or subcritical phases), x1 = 0.8	73.65 ± 0.37
563.15 K, 4188 kPa, Fluid (supercritical or subcritical phases), x1 = 0.9	83.22 ± 0.42
563.15 K, 4893 kPa, Fluid (supercritical or subcritical phases), x1 = 0.2	91.24 ± 0.46
563.15 K, 5140 kPa, Fluid (supercritical or subcritical phases), x1 = 0.8	106.2 ± 0.54
563.15 K, 5522 kPa, Fluid (supercritical or subcritical phases), x1 = 0.9	123.11 ± 0.62
563.15 K, 5594 kPa, Fluid (supercritical or subcritical phases), x1 = 0.2	114.13 ± 0.58
563.15 K, 5876 kPa, Fluid (supercritical or subcritical phases), x1 = 0.9	133.86 ± 0.68
563.15 K, 6362 kPa, Fluid (supercritical or subcritical phases), x1 = 0.8	140.03 ± 0.71
563.15 K, 6504 kPa, Fluid (supercritical or subcritical phases), x1 = 0.2	150.05 ± 0.77
563.15 K, 6690 kPa, Fluid (supercritical or subcritical phases), x1 = 0.9	163.64 ± 0.83
563.15 K, 6728 kPa, Fluid (supercritical or subcritical phases), x1 = 0.8	155.74 ± 0.79
563.15 K, 6993 kPa, Fluid (supercritical or subcritical phases), x1 = 0.2	175.27 ± 0.9
563.15 K, 7120 kPa, Fluid (supercritical or subcritical phases), x1 = 0.8	169.45 ± 0.86
563.15 K, 7244 kPa, Fluid (supercritical or subcritical phases), x1 = 0.2	189.26 ± 0.98
563.15 K, 7275 kPa, Fluid (supercritical or subcritical phases), x1 = 0.8	175.68 ± 0.9
563.15 K, 7389 kPa, Fluid (supercritical or subcritical phases), x1 = 0.8	180.47 ± 0.92
563.15 K, 7397 kPa, Fluid (supercritical or subcritical phases), x1 = 0.9	189.08 ± 0.96
563.15 K, 7718 kPa, Fluid (supercritical or subcritical phases), x1 = 0.2	219.66 ± 1.1
563.15 K, 7728 kPa, Fluid (supercritical or subcritical phases), x1 = 0.8	192.78 ± 0.98
563.15 K, 7738 kPa, Fluid (supercritical or subcritical phases), x1 = 0.9	201.98 ± 1
563.15 K, 8148 kPa, Fluid (supercritical or subcritical phases), x1 = 0.2	244.99 ± 1.3
563.15 K, 8285 kPa, Fluid (supercritical or subcritical phases), x1 = 0.9	220.25 ± 1.1
563.15 K, 8310 kPa, Fluid (supercritical or subcritical phases), x1 = 0.8	213.43 ± 1.1
563.15 K, 8376 kPa, Fluid (supercritical or subcritical phases), x1 = 0.2	258.68 ± 1.3
563.15 K, 8439 kPa, Fluid (supercritical or subcritical phases), x1 = 0.2	262.38 ± 1.3
563.15 K, 8483 kPa, Fluid (supercritical or subcritical phases), x1 = 0.8	219.19 ± 1.1
563.15 K, 8609 kPa, Fluid (supercritical or subcritical phases), x1 = 0.2	271.82 ± 1.4
563.15 K, 8640 kPa, Fluid (supercritical or subcritical phases), x1 = 0.9	232.6 ± 1.2
563.15 K, 8748 kPa, Fluid (supercritical or subcritical phases), x1 = 0.9	236.06 ± 1.2
563.15 K, 8876 kPa, Fluid (supercritical or subcritical phases), x1 = 0.9	240.45 ± 1.2
563.15 K, 8904 kPa, Fluid (supercritical or subcritical phases), x1 = 0.8	234.24 ± 1.2
563.15 K, 8945 kPa, Fluid (supercritical or subcritical phases), x1 = 0.2	289.96 ± 1.5
563.15 K, 8965 kPa, Fluid (supercritical or subcritical phases), x1 = 0.9	243.76 ± 1.2
563.15 K, 9207 kPa, Fluid (supercritical or subcritical phases), x1 = 0.8	244.86 ± 1.2
563.15 K, 9294 kPa, Fluid (supercritical or subcritical phases), x1 = 0.2	306.21 ± 1.6
563.15 K, 9393 kPa, Fluid (supercritical or subcritical phases), x1 = 0.2	310.43 ± 1.6
563.15 K, 9613 kPa, Fluid (supercritical or subcritical phases), x1 = 0.2	318.13 ± 1.6
563.15 K, 9648 kPa, Fluid (supercritical or subcritical phases), x1 = 0.8	258.06 ± 1.3
563.15 K, 10165 kPa, Fluid (supercritical or subcritical phases), x1 = 0.8	271.99 ± 1.4
563.15 K, 10334 kPa, Fluid (supercritical or subcritical phases), x1 = 0.2	340.56 ± 1.7
563.15 K, 10363 kPa, Fluid (supercritical or subcritical phases), x1 = 0.9	281.45 ± 1.4
563.15 K, 10433 kPa, Fluid (supercritical or subcritical phases), x1 = 0.2	343.35 ± 1.7
563.15 K, 10875 kPa, Fluid (supercritical or subcritical phases), x1 = 0.8	287.81 ± 1.4
563.15 K, 11127 kPa, Fluid (supercritical or subcritical phases), x1 = 0.9	301.08 ± 1.5
563.15 K, 11345 kPa, Fluid (supercritical or subcritical phases), x1 = 0.8	298.6 ± 1.5
563.15 K, 11776 kPa, Fluid (supercritical or subcritical phases), x1 = 0.9	311.7 ± 1.6
563.15 K, 11942 kPa, Fluid (supercritical or subcritical phases), x1 = 0.2	377.85 ± 1.9
563.15 K, 12196 kPa, Fluid (supercritical or subcritical phases), x1 = 0.2	382.64 ± 1.9
563.15 K, 12285 kPa, Fluid (supercritical or subcritical phases), x1 = 0.8	314.73 ± 1.6
563.15 K, 12687 kPa, Fluid (supercritical or subcritical phases), x1 = 0.2	390.46 ± 2
563.15 K, 13176 kPa, Fluid (supercritical or subcritical phases), x1 = 0.9	333.36 ± 1.7
563.15 K, 13452 kPa, Fluid (supercritical or subcritical phases), x1 = 0.8	333.18 ± 1.7
563.15 K, 14255 kPa, Fluid (supercritical or subcritical phases), x1 = 0.8	344.68 ± 1.7
563.15 K, 14845 kPa, Fluid (supercritical or subcritical phases), x1 = 0.2	417.82 ± 2.1
